The values below come from patent publication US7087433B2, “7SK RNA regulated transcription” (The Regents of the University of California, priority 2002, dated 2006).

Starred links: 1 amine or outer side, 2 acyl side, 3 side chain; linkers in the order of their positions; H or OH if unused. Positions of bridges follow the written chain, without caps; N, C: chain ends. Non-standard residues stand in square brackets, D forms with d. Residues, ends and D or L forms follow the SMILES beside them. Chains are numbered I, II in the order given. Actinocin(9to1) = Cc1c2oc3c(C)ccc(C(=O)[*:1])c3nc-2c(C(=O)[*:2])c(N)c1=O; NMeV = CN[C@H](C(=O)O)C(C)C; Sar = CNCC(=O)O

Series [1] deals with 7SK/P-TEFb interaction. Kind of series: 7SK/P-TEFb interaction in nuclear extracts of treated F1C2 cells. The class given is cell-based, human. The conditions noted are these: nuclear extract. An excerpt:
Certain agents that elicit SOS-like stress responses in mammalian cells can markedly enhance HIV-1 transcription in a manner analogous to prophage induction in Escherichia coli (6–8,20,21). […] In light of these observations, we investigated the effect of ultraviolet irradiation and actinomycin D on the 7SK/P-TEFb interaction in nuclear extracts of the treated F1C2 cells. […] Neither the level of total 7SK in the nuclear extract nor the CDK9/cyclin T1 interaction was affected. […] As for ultraviolet irradiation, 7SK was dissociated from P-TEFb as early as 15–30 min after treatment, long before any signs of apoptosis appeared. Thus, stress signals such as ultraviolet irradiation and actinomycin D can cause fast and efficient 7SK dissociation from P-TEFb, which explains their positive effects on HIV-1 transcription and Pol II phosphorylation.

Series [2] concerns the target T1, 7SK/P-TEFb interaction (Homo sapiens, UniProt P50750).
T1 construct: expressed in transfected cells; host or cells: F1C2 cell line (HeLa stably transfected with pBabe-puro-CDK9-Flag)
Kind of series: Direct incubation with nuclear extract, 7SK/P-TEFb interaction. The format is binding.

The subject of series [3] is HIV-1 transcription. The following applies: HeLa cells, low levels of drug; cited from earlier work.
Series [4] deals with CDK9/cyclin T1 kinase. Put plainly: CDK9-Flag kinase reaction with purified RNA Pol II as substrate. The format is biochemical, human. The conditions noted are these: affinity-purified CDK9-Flag; degradation of associated 7SK. As to the method: 7SK could inhibit the activity of P-TEFb by suppressing the kinase activity of CDK9/cyclin T1. Affinity-purified CDK9-Flag and its associated factors were divided into two halves, incubated respectively with RNase A and DNase I, and tested in kinase reactions containing purified RNA Pol II as a substrate (9). […] This increase was significant given that only about 50% of the purified CDK9-Flag/cyclin T1 was associated with 7SK. […] To analyse more specifically the activity of P-TEFb bound to 7SK, this complex was affinity purified from HeLa nuclear extract using the 7SK antisense 2′-OMe RNA beads. Eluted with a displacement deoxyoligonucleotide (15), the P-TEFb bound to 7SK was divided into three equal portions, incubated respectively with RNase A, DNase I or buffer alone, and analysed in kinase reactions.

T1 sequence (P50750 whole entry): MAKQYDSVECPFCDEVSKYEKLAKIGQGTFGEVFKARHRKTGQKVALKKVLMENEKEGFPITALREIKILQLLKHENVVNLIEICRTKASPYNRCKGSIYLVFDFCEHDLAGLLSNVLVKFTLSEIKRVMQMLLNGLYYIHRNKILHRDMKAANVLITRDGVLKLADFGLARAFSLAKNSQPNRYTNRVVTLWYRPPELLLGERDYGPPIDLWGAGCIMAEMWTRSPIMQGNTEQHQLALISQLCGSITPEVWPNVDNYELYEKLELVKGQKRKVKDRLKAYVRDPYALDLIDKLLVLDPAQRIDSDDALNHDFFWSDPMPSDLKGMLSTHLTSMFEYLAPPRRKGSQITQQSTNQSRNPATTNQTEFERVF
T1 sequence (O60563 whole entry partner): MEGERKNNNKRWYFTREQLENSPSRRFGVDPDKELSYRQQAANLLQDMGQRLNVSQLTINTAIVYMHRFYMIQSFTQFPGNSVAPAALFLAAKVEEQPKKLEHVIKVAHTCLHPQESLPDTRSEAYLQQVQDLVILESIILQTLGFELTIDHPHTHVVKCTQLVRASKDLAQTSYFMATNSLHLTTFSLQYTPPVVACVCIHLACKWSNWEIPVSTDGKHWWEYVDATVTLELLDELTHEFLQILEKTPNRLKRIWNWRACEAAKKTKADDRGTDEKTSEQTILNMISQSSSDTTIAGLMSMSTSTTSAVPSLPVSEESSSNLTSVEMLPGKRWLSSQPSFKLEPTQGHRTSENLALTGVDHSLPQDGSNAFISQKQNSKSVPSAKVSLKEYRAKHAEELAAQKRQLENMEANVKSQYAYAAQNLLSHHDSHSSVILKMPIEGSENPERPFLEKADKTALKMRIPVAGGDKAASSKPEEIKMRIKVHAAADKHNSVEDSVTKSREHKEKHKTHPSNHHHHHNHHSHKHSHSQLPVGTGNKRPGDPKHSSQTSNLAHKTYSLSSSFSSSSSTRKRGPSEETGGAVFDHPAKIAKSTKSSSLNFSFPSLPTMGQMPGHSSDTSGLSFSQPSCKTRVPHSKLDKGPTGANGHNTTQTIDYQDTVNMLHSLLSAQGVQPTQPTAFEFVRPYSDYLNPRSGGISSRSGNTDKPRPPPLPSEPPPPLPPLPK

Turning to `Cc1c2oc3c(C)ccc(C(=O)N[C@@H]4C(=O)N[C@H](C(C)C)C(=O)N5CCC[C@H]5C(=O)N(C)CC(=O)N(C)[C@@H](C(C)C)C(=O)O[C@@H]4C)c3nc-2c(C(=O)N[C@@H]2C(=O)N[C@H](C(C)C)C(=O)N3CCC[C@H]3C(=O)N(C)CC(=O)N(C)[C@@H](C(C)C)C(=O)O[C@@H]2C)c(N)c1=O` [actinomycin D] (I: T[dV]P[Sar][NMeV] / II: T[dV]P[Sar][NMeV]; ester I:1-I:C, II:1-II:C; linker I:N-II:N via Actinocin(9to1)), the “amount of 7SK associated with affinity-purified CDK9-Flag” value in series [1] was “significantly reduced the amount of 7SK associated with the affinity-purified CDK9-Flag”. For the same molecule, in series [2], the 7SK/P-TEFb interaction entry was “did not disrupt the 7SK/P-TEFb interaction”. In addition, the HIV-1 transcription result in series [3] was “enhances HIV-1 transcription to levels similar to those obtained by Tat”.

B1: RNase A: ribonuclease used to degrade the CDK9-Flag-associated 7SK (protein, UniProt P61823 27-150, looked up)
Ribonuclease pancreatic: KETAAAKFERQHMDSSTSAASSSNYCNQMMKSRNLTKDRCKPVNTFVHESLADVQAVCSQKNVACKNGQTNCYQSYSTMSITDCRETGSSKYPNCAYKTTQANKHIIVACEGNPYVPVHFDASV
In the case of B1, the “increase of kinase activity of CDK9-Flag (autophosphorylation and phosphorylation of Pol II)” value in series [4] is reported as 3-4 fold.
